Assay results taken from patent US20190030046A1, “USE OF PURE COMPOUNDS EXTRACTED FROM ANTRODIA CAMPHORATA” (priority 2016, published 2019).

What was measured:
[1] = HFD-induced diabetic mice: absolute tissue weight, body weight, food intake; format: in vivo, C57BL/6J mice; details: 4 weeks; for Absolute tissue weight: Visceral fat: EWAT plus RWAT
Description: (§1) The difference indicates the daily food intake.

11β-HSD1 = assay: Semiquantitative RT-PCR in liver tissue: 11β-HSD1; format: in vivo, C57BL/6J mice; details: vs HF, 4 weeks
Procedure: as §1
(§2) Total RNA from liver tissue was isolated with a Trizol Reagent (Molecular Research Center, Inc., Cincinnati, Ohio, USA) according to the manufacturer's instructions. The integrity of the extracted total RNA was examined by 2% agarose gel electrophoresis, and the RNA concentration was determined by […] ultraviolet (UV) light absorbency at 260 nm and 280 nm (Spectrophotometer U-2800A, Hitachi). The total RNA (1 μg) was reverse transcribed to cDNA, and 5 μL Moloney murine leukemia virus reverse transcriptase (TEpicentre, Madison, Wis., USA). The PCR was performed in a final 25 μL containing 1 U Blend Taq-Plus (TOYOBO, Japan), 10 μL of the RT cDNA product, 10 μM of each forward (F) and reverse (R) primer, 75 mM Tris-HCL (pH 8.3) containing 1 mg/L Tween 20 (pH 8.3, also known as polyoxyethylene sorbitan monolaurate), 2.5 mM dNTP (deoxy-ribonucleoside triphosphate), and 2 mM MgCl2 (magnesium chloride). The PCR products were analyzed by 2% agarose gel and stained with ethidium bromide.

SREBP-1c = assay: Semiquantitative RT-PCR in liver tissue: SREBP-1c; format: in vivo, C57BL/6J mice; details: vs HF, 4 weeks
Procedure: as §1, §2

aP2 = assay: Semiquantitative RT-PCR in liver tissue: aP2; format: in vivo, C57BL/6J mice; details: vs HF, 4 weeks
Procedure: as §1, §2

PPARα = assay: Western blot of PPARα protein in liver of HFD mice; details: compared to HF, 4 weeks
PPARγ = assay: Western blot of PPARγ protein in liver and adipose tissue of HFD mice; details: compared to HF, 4 weeks
[2] = HFD-induced diabetic mice: fasting blood glucose and biochemical indexes; details: 4 weeks; for Blood glucose: 12 h fasted HFD mice; for Plasma FFA / Insulin / Leptin / TC / TG: HFD mice; for Insulin / Leptin: blood; for TC / TG: plasma
Procedure: The control group and HFD group contained 10% and 45% fat intake, respectively. The HFD mice were subdivided into 6 groups (9 per group) followed by 8-week induction. […] During the experiment, all mice were fasted overnight, and blood samples were collected from the retro-orbital sinus. Following four-week treatment and feeding, the food was removed, and the mice were fasted for 12 h and then sacrificed. Tissue samples required were collected from the mice and weighted. Some of the tissue samples were immediately stored at −80° C. and frozen for subsequent target gene analysis. Plasma samples were collected via centrifugation of whole blood at 1600×g for 15 min at 4° C., followed by plasma separation within 30 min. Some plasma samples obtained were used for TG and TC analysis. The metabolic parameters, including body weight, weight gain, and food intake, were performed as follows. Body weight was daily measured throughout the study. Body weight gain is considered as the difference between one day and the next day. The total weight of food intake was daily measured, followed by weighing the amount of remaining feed after 24 h. The difference indicates the daily food intake.
One part of the forgoing blood samples collected from the retro-orbital sinus of 12 h fasted mice was immediately used for analysis of glucose levels. The other part was used for analysis of blood TG, TC, free fatty acids, blood insulin, leptin, and adiponectin levels. Blood glucose levels were determined by a glucose analyzer (Model 1500 sidekick glucose analyzer, YSI). Plasma triglycerides (TG), total cholesterol (TC), and free fatty acids (FFA) were determined using commercial kits in accordance with manufacturer's instructions (Triglycerides-E test, Cholesterol-E test, and FFA-C test; Wako Pure Chemical, Osaka, Japan). Insulin and leptin levels were measured by enzyme-linked immunosorbent assay (ELISA) (mouse insulin ELISA kit, Mercodia, Uppsala, Sweden; mouse leptin ELISA kit, Morinaga, Yokohama, Japan).

## C=C(CC[C@@H](C(=O)O)[C@H]1CC[C@@]2(C)C3=CC[C@H]4C(C)(C)[C@@H](O)CC[C@]4(C)C3=CC[C@]12C)C(C)C [TT, dehydroeburicoic acid]
[1]; HF+TT1, 10 mg/kg/day oral
  Absolute tissue weight: Visceral fat: 1142.9 mg
  Absolute tissue weight: Brown adipose tissue (BAT): 228.6 mg
  Absolute tissue weight: Epididymal white adipose tissue (EWAT): 798.9 mg
  Absolute tissue weight: Liver: 848.3 mg
  Absolute tissue weight: Mesenteric white adipose tissue (MWAT): 361.3 mg
  Absolute tissue weight: Retroperitoneal white adipose tissue (RWAT): 343.9 mg
  Absolute tissue weight: Spleen: 77.7 mg
  Final body weight: 27.52 g
  Food intake: 2.21 g/day/mouse
  Weight gain: 2.24 g
[1]; HF+TT2, 20 mg/kg/day oral
  Absolute tissue weight: Visceral fat: 1116.2 mg
  Absolute tissue weight: Brown adipose tissue (BAT): 197.3 mg
  Absolute tissue weight: Epididymal white adipose tissue (EWAT): 784.3 mg
  Absolute tissue weight: Liver: 841.8 mg
  Absolute tissue weight: Mesenteric white adipose tissue (MWAT): 340.9 mg
  Absolute tissue weight: Retroperitoneal white adipose tissue (RWAT): 331.9 mg
  Absolute tissue weight: Spleen: 81.5 mg
  Final body weight: 26.47 g
  Food intake: 2.16 g/day/mouse
  Weight gain: 0.89 g
[1]; HF+TT3, 40 mg/kg/day oral
  Absolute tissue weight: Visceral fat: 979.3 mg
  Absolute tissue weight: Brown adipose tissue (BAT): 198.1 mg
  Absolute tissue weight: Epididymal white adipose tissue (EWAT): 667.8 mg
  Absolute tissue weight: Liver: 802.8 mg
  Absolute tissue weight: Mesenteric white adipose tissue (MWAT): 304.6 mg
  Absolute tissue weight: Retroperitoneal white adipose tissue (RWAT): 311.4 mg
  Absolute tissue weight: Spleen: 82.3 mg
  Final body weight: 26.53 g
  Food intake: 2.07 g/day/mouse
  Weight gain: 0.83 g
11β-HSD1; HF+TT1, 10 mg/kg/day oral
  11β-HSD1 mRNA expression level in liver: decreased
11β-HSD1; HF+TT2, 20 mg/kg/day oral
  11β-HSD1 mRNA expression level in liver: decreased
11β-HSD1; HF+TT3, 40 mg/kg/day oral
  11β-HSD1 mRNA expression level in liver: decreased
SREBP-1c; HF+TT1, 10 mg/kg/day oral
  SREBP-1c mRNA expression level in liver: decreased
SREBP-1c; HF+TT2, 20 mg/kg/day oral
  SREBP-1c mRNA expression level in liver: decreased
SREBP-1c; HF+TT3, 40 mg/kg/day oral
  SREBP-1c mRNA expression level in liver: decreased
aP2; HF+TT1, 10 mg/kg/day oral
  aP2 mRNA expression level in liver: decreased
aP2; HF+TT2, 20 mg/kg/day oral
  aP2 mRNA expression level in liver: decreased
aP2; HF+TT3, 40 mg/kg/day oral
  aP2 mRNA expression level in liver: decreased
PPARα; HF+TT1, 10 mg/kg/day oral
  PPAR protein expression level in liver: significantly increased
PPARα; HF+TT2, 20 mg/kg/day oral
  PPAR protein expression level in liver: significantly increased
PPARα; HF+TT3, 40 mg/kg/day oral
  PPAR protein expression level in liver: significantly increased
PPARγ; HF+TT1, 10 mg/kg/day oral
  PPARγ protein expression level in adipose tissue: significantly decreased
  PPARγ protein expression level in liver: significantly decreased
PPARγ; HF+TT2, 20 mg/kg/day oral
  PPARγ protein expression level in adipose tissue: significantly decreased
  PPARγ protein expression level in liver: significantly decreased
PPARγ; HF+TT3, 40 mg/kg/day oral
  PPARγ protein expression level in adipose tissue: significantly decreased
  PPARγ protein expression level in liver: significantly decreased
[2]; HF+TT1, 10 mg/kg/day oral
  Blood glucose: 90.44 mg/dL
  Plasma FFA: 0.95 meq/L
  Insulin: 2.982 µg/L
  Leptin: 9.827 ng/mL
  TC: 120.55 mg/dL
  TG: 84.85 mg/dL
[2]; HF+TT2, 20 mg/kg/day oral
  Blood glucose: 82.89 mg/dL
  Plasma FFA: 0.87 meq/L
  Insulin: 2.625 µg/L
  Leptin: 8.468 ng/mL
  TC: 114.93 mg/dL
  TG: 83.63 mg/dL
[2]; HF+TT3, 40 mg/kg/day oral
  Blood glucose: 77.78 mg/dL
  Plasma FFA: 0.81 meq/L
  Insulin: 2.190 µg/L
  Leptin: 6.439 ng/mL
  TC: 112.46 mg/dL
  TG: 82.31 mg/dL
